Test results: paper PMC10511702, “Design, molecular modelling and synthesis of novel benzothiazole derivatives as BCL-2 inhibitors” (Scientific Reports, 2023)

Experiments:
recombinant BCL-2 = target: T1, recombinant BCL-2 (Homo sapiens, UniProt P10415); test: In vitro BCL-2 inhibitory activity, TR-FRET assay (BPS Bioscience); type: binding; details: for IC50: 5 concentrations 1 nM-10 µM; for inhibition at 10 µM: single dose of 10 µM
T1 construct: purchased BPS Bioscience 50272
Procedure: The in vitro enzyme inhibition determination for the synthesized compounds was carried out in BPS Bioscience Corporation, San Diego, CA, USA (www.bpsbioscience.com). […] The assay was performed by TR-FRET technology using a recombinant BCL-2 and a peptide- ligand substrate. The TR-FRET signal from the assay is correlated with the amount of Ligand binding to BCL-2. […] All of the binding reactions were conducted at room temperature. […] The reaction mixture incubated for 180 min prior to reading the TR-FRET signal. For the background, ligand was replaced with assay buffer. Fluorescence signals for both the donor and acceptor dyes were measured using a Tecan Infinite M1000 plate reader. TR-FRET was recorded as the ratio of the fluorescence of the acceptor and the donor dyes (acceptor/donor). Binding experiments were performed in duplicate at each concentration. The TR-FRET data were analyzed using the computer software, Graphpad Prism. In the absence of the compound in wells containing BCL-2 ligand, the TR-FRET signal (Ft) in each data set was defined as 100% activity. In wells without peptide ligand, the TR-FRET signal (Fb) in each data set was defined as 0% activity. The percent activity in the presence of each compound was calculated according to the following equation: % activity = [(F − Fb)/ (Ft − Fb)] × 100, where F = the TR-FRET signal in the presence of the compound. The percent inhibition was calculated according to the following equation: % inhibition = 100—% activity. IC50 determination for target compounds against BCL-2 was calculated. […] The IC50 value was determined by the concentration causing a half-maximal percent activity.

T1 sequence (P10415 whole entry): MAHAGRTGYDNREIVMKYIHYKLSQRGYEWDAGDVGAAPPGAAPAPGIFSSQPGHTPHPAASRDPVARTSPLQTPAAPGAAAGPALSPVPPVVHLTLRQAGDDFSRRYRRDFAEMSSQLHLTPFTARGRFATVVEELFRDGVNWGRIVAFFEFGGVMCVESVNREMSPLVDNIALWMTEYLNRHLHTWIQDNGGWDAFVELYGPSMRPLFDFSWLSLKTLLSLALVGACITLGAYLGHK

| melting point [°C] | IC50 (recombinant BCL-2) [nM] | inhibition at 10 µM (recombinant BCL-2) [%] | SMILES |
| --- | --- | --- | --- |
| ≥ 300 | 1620 | > 60 | O=C(Nc1ccc(OCc2ccc(Br)cc2)cc1)c1ccc2nc(NS(=O)(=O)c3ccc4ccccc4c3)sc2c1 [8d, N-(4-((4-Bromobenzyl)oxy)phenyl)-2-(naphthalene-2-sulfonamido)benzo[d]thiazole-6-carboxamide] |
| 260 to 262 | – | 35 | O=C(Nc1ccc(OCc2cccc(Cl)c2)cc1)c1ccc2nc(NC(=O)c3ccc(NCCc4ccccc4)c([N+](=O)[O-])c3)sc2c1 [13a, N-(4-((3-Chlorobenzyl)oxy)phenyl)-2-(3-nitro-4-(phenethylamino)benzamido) benzo[d]thiazole-6-carboxamide] |
| 196 to 198 | – | 20 | O=C(Nc1ccc(Oc2ccc(Cl)c(F)c2)cc1)c1ccc2nc(NC(=O)c3ccc(NCCc4ccccc4)c([N+](=O)[O-])c3)sc2c1 [14a, N-(4-(4-Chloro-3-fluorophenoxy)phenyl)-2-(3-nitro-4-(phenethylamino)benzamido)-benzo[d]thiazole-6-carboxamide] |
| 212 to 214 | – | 47 | O=C(Nc1ccc(Oc2ccc(Br)cc2)cc1)c1ccc2nc(NC(=O)c3ccc(NCCc4ccccc4)c([N+](=O)[O-])c3)sc2c1 [14b] |
| ≥ 300 | – | 0 | O=C(Nc1ccccc1)Nc1ccc2nc(NS(=O)(=O)c3ccc4ccccc4c3)sc2c1 [17a, N-(6-(3-Phenylureido)benzo[d]thiazol-2-yl)naphthalene-2-sulfonamide] |
| ≥ 300 | – | 7 | O=C(Nc1cccc(Cl)c1)Nc1ccc2nc(NS(=O)(=O)c3ccc4ccccc4c3)sc2c1 [17b, N-(6-(3-(3-Chlorophenyl)ureido)benzo[d]thiazol-2-yl)naphthalene-2-sulfonamide] |
| ≥ 300 | – | 0 | Cc1cccc(NC(=O)Nc2ccc3nc(NS(=O)(=O)c4ccc5ccccc5c4)sc3c2)c1 [17e, N-(6-(3-(m-Tolyl)ureido)benzo[d]thiazol-2-yl)naphthalene-2-sulfonamide] |
| ≥ 300 | 2290 | > 60 | O=C(Nc1ccc(Br)cc1)Nc1ccc2nc(NS(=O)(=O)c3ccc4ccccc4c3)sc2c1 [17f, N-(6-(3-(4-Bromophenyl)ureido)benzo[d]thiazol-2-yl)naphthalene-2-sulfonamide] |
| 290 to 292 | – | 0 | O=C(Nc1ccc(Cl)c(Cl)c1)Nc1ccc2nc(NS(=O)(=O)c3ccc4ccccc4c3)sc2c1 [17h, N-(6-(3-(3,4-Dichlorophenyl)ureido)benzo[d]thiazol-2-yl)naphthalene-2-sulfonamide] |
| 280 to 282 | – | 14 | Cc1cc(Cl)ccc1NC(=O)Nc1ccc2nc(NS(=O)(=O)c3ccc4ccccc4c3)sc2c1 [17i, N-(6-(3-(4-Chloro-2-methylphenyl)ureido)benzo[d]thiazol-2-yl)naphthalene-2-sulfonamide] |

The next lines start with the molecule.

| SMILES | melting point [°C] | IC50 (recombinant BCL-2) [nM] | inhibition at 10 µM (recombinant BCL-2) [%] |
| --- | --- | --- | --- |
| Cc1ccc(COc2ccc(NC(=O)c3ccc4nc(NS(=O)(=O)c5ccc6ccccc6c5)sc4c3)cc2)cc1 [8e, N-(4-((4-Methylbenzyl)oxy)phenyl)-2-(naphthalene-2-sulfonamido)benzo[d]thiazole-6-carboxamide] | ≥ 300 | – | 13 |
| O=C(Nc1ccc(OCc2ccc(C(F)(F)F)cc2)cc1)c1ccc2nc(NS(=O)(=O)c3ccc4ccccc4c3)sc2c1 [8f, N-(4-((4-Trifluormethylbenzyl)oxy)phenyl)-2-(naphthalene-2-sulfonamido)benzo-[d]thiazole-6-carboxamide] | ≥ 300 | – | 14 |
| O=C(Nc1ccc(Oc2ccc(Cl)c(F)c2)cc1)c1ccc2nc(NS(=O)(=O)c3ccc4ccccc4c3)sc2c1 [9a, N-(4-(4-Chloro-3-fluorophenoxy)phenyl)-2-(naphthalene-2-sulfonamido)benzo[d]thiazole-6-carboxamide] | 294 to 296 | – | 9 |
| O=C(Nc1ccc(Oc2ccc(Br)cc2)cc1)c1ccc2nc(NS(=O)(=O)c3ccc4ccccc4c3)sc2c1 [9b, N-(4-(4-Bromophenoxy)phenyl)-2-(naphthalene-2-sulfonamido)benzo[d]thiazole-6-carboxamide] | 280 to 282 | – | 9 |
| COc1ccccc1N1CCN(C(=O)c2ccc3nc(NC(=O)c4ccc(NCCc5ccccc5)c([N+](=O)[O-])c4)sc3c2)CC1 [12a, N-(6-(4-(2-Methoxyphenyl)piperazine-1-carbonyl)benzo[d]thiazol-2-yl)-3-nitro-4-(phenethylamino)benzamide] | 184 to 186 | – | 15 |
| O=C(Nc1nc2ccc(C(=O)N3CCN(c4ccc(Cl)c(Cl)c4)CC3)cc2s1)c1ccc(NCCc2ccccc2)c([N+](=O)[O-])c1 [12b, N-(6-(4-(3,4-Dichlorophenyl)piperazine-1-carbonyl)benzo[d]thiazol-2-yl)-3-nitro-4-(phenethylamino)benzamide] | 176 to 178 | – | 18 |
| O=C(Nc1nc2ccc(C(=O)N3CCN(C(c4ccccc4)c4ccccc4)CC3)cc2s1)c1ccc(NCCc2ccccc2)c([N+](=O)[O-])c1 [12c, N-(6-(4-Benzhydrylpiperazine-1-carbonyl)benzo[d]thiazol-2-yl)-3-nitro-(phenethylamino)-benzamide] | 170 to 172 | – | 18 |
| O=C(Nc1nc2ccc(C(=O)N3CCN(C/C=C/c4ccccc4)CC3)cc2s1)c1ccc(NCCc2ccccc2)c([N+](=O)[O-])c1 [12d, (E)-N-(6-(4-Cinnamylpiperazine-1-carbonyl)benzo[d]thiazol-2-yl)-3-nitro-4-(phenethyl-amino)benzamide] | 244 to 246 | – | 14 |
| O=C(Nc1nc2ccc(C(=O)N3CCN(C(=O)C4CCCO4)CC3)cc2s1)c1ccc(NCCc2ccccc2)c([N+](=O)[O-])c1 (stereo not drawn) [12e, 3-Nitro-4-(phenethylamino)-N-(6-(4-(tetrahydrofuran-2-carbonyl)piperazine-1-carbonyl)-benzo[d]thiazol-2-yl)benzamide] | 134 to 136 | – | 8 |
| O=C(Nc1ccc(OCc2ccc(Br)cc2)cc1)c1ccc2nc(NC(=O)c3ccc(NCCc4ccccc4)c([N+](=O)[O-])c3)sc2c1 [13b, N-(4-((4-Bromobenzyl)oxy)phenyl)-2-(3-nitro-4-(phenethylamino)benzamido)-benzo[d]thiazole-6-carboxamide] | 260 to 262 | 1090 | > 60 |
| O=C(Nc1cccc(Br)c1)Nc1ccc2nc(NS(=O)(=O)c3ccc4ccccc4c3)sc2c1 [17c, N-(6-(3-(3-Bromophenyl)ureido)benzo[d]thiazol-2-yl)naphthalene-2-sulfonamide] | ≥ 300 | – | 10 |
| COc1cccc(NC(=O)Nc2ccc3nc(NS(=O)(=O)c4ccc5ccccc5c4)sc3c2)c1 [17d, N-(6-(3-(3-Methoxyphenyl)ureido)benzo[d]thiazol-2-yl)naphthalene-2-sulfonamide] | ≥ 300 | – | 7 |
| O=C(Nc1ccc(Cl)c(C(F)(F)F)c1)Nc1ccc2nc(NS(=O)(=O)c3ccc4ccccc4c3)sc2c1 [17g, N-(6-(3-(4-Chloro-3-(trifluoromethyl)phenyl)ureido)benzo[d]thiazol-2-yl)naphthalene-2-sulfonamide] | ≥ 300 | – | 18 |
| Cc1ccc(NC(=O)Nc2ccc3nc(NS(=O)(=O)c4ccc5ccccc5c4)sc3c2)cc1Cl [17j, N-(6-(3-(3-Chloro-4-methylphenyl)ureido)benzo[d]thiazol-2-yl)naphthalene-2-sulfonamide] | ≥ 300 | – | 9 |
